Experimental data from US20250332178A1, “METHODS OF TREATING MYCOBACTERIAL INFECTIONS USING TETRACYCLINE COMPOUNDS” (priority 2018, published 2025).
Read-outs that look alike come from different tables or passages of the source.

Assays:
[1] = tested on: rapid-growing mycobacteria (RGM) isolates; assay: MIC (CLSI broth dilution), all RGM isolates; format: cell-based, nontuberculous mycobacteria; conditions: all 50 RGM isolates
M. abscessus complex = assay: MIC (CLSI broth dilution), RGM isolates; format: cell-based; conditions: Mycobacteroides abscessus, read-out: MIC
M. chelonae = assay: MIC (CLSI broth dilution), RGM isolates; format: cell-based; conditions: Mycobacteroides chelonae, read-out: MIC
M. fortuitum group = assay: MIC (CLSI broth dilution), RGM isolates; format: cell-based; conditions: Mycolicibacterium fortuitum, read-out: MIC
M. immunogenum group = assay: MIC (CLSI broth dilution), RGM isolates; format: cell-based; conditions: M. immunogenum, read-out: MIC
M. mucogenium group = assay: MIC (CLSI broth dilution), RGM isolates; format: cell-based; conditions: read-out: MIC
M. smegmatis group = assay: MIC (CLSI broth dilution), RGM isolates; format: cell-based; conditions: Mycolicibacterium smegmatis, read-out: MIC
[2] = tested on: slow-growing NTM isolates; assay: MIC (CLSI broth dilution), all slow-growing NTM isolates; format: cell-based, nontuberculous mycobacteria; conditions: all slow-growing NTM isolates
M. avium = assay: MIC (CLSI broth dilution), slow-growing NTM isolates; format: cell-based; conditions: Mycobacterium avium, read-out: MIC
M. chimaera = assay: as above; format: cell-based; conditions: read-out: MIC
M. intracellulare = assay: as above; format: cell-based; conditions: Mycobacterium intracellulare, read-out: MIC
M. arupense = assay: as above; format: cell-based; conditions: isolate 11, Other; read-out: MIC
M. simiae = assay: as above; format: cell-based; conditions: read-out: MIC

COc1c(N2C[C@@H]3CCCN[C@@H]3C2)c(F)cc2c(=O)c(C(=O)O)cn(C3CC3)c12 [MXF, moxifloxacin]
0.5 µg/mL: MIC (M. mucogenium group; isolate 42, M. mucogenicum group, M. mucogenicum) | MIC (M. mucogenium group; isolate 44, M. mucogenicum group, M. phocaicum) | MIC (M. mucogenium group; isolate 47, M. mucogenicum group, M. phocaicum) | MIC (M. intracellulare; isolate 10, MAC)
8 µg/mL: MIC (M. abscessus complex; isolate 1, M. abscessus complex, erm gene type MAB30) | MIC (M. abscessus complex; isolate 2, M. abscessus complex, erm gene type MAB30) | MIC (M. abscessus complex; isolate 7, M. abscessus complex, erm gene type Type 1 abscessus) | MIC (M. abscessus complex; isolate 9, M. abscessus complex, erm gene type Type 1 abscessus) | MIC (M. abscessus complex; isolate 11, M. abscessus complex, erm gene type Type 6 abscessus) | MIC (M. abscessus complex; isolate 13, M. abscessus complex, erm gene type Type 6 abscessus) | MIC (M. abscessus complex; isolate 14, M. abscessus complex, erm gene type Type 6 abscessus) | MIC (M. abscessus complex; isolate 15, M. abscessus complex, erm gene type Type 7 abscessus) | MIC (M. chelonae; isolate 19, M. chelonae) | MIC (M. immunogenum group; isolate 35, M. immunogenum group) | MIC90 ([2]; read-out: MIC90) | MIC (M. simiae; isolate 15, Other)
16 µg/mL: MIC90 ([1]; read-out: MIC90) | MIC (M. abscessus complex; isolate 3, M. abscessus complex, erm gene type MAB30) | MIC (M. abscessus complex; isolate 4, M. abscessus complex, erm gene type massiliense) | MIC (M. abscessus complex; isolate 6, M. abscessus complex, erm gene type Type 1 abscessus) | MIC (M. abscessus complex; isolate 8, M. abscessus complex, erm gene type Type 1 abscessus) | MIC (M. immunogenum group; isolate 37, M. immunogenum group) | MIC (M. immunogenum group; isolate 38, M. immunogenum group)
0.25 µg/mL: MIC (M. fortuitum group; isolate 28, M. fortuitum group, M. porcinum/M. boenickei) | MIC (M. mucogenium group; isolate 40, M. mucogenicum group, M. mucogenicum) | MIC (M. mucogenium group; isolate 41, M. mucogenicum group, M. mucogenicum) | MIC (M. mucogenium group; isolate 43, M. mucogenicum group, M. phocaicum) | MIC (M. smegmatis group; isolate 50, M. smegmatis group, M. wolinskyi) | MIC (M. avium; isolate 2, MAC)
> 16 µg/mL: MIC (M. chelonae; isolate 21, M. chelonae) | MIC (M. arupense)
2 µg/mL: MIC50 ([1]; read-out: MIC50) | MIC (M. chelonae; isolate 20, M. chelonae) | MIC (M. chelonae; isolate 22, M. chelonae) | MIC50 ([2]; read-out: MIC50) | MIC (M. avium; isolate 1, MAC) | MIC (M. chimaera; isolate 5, MAC) | MIC (M. intracellulare; isolate 6, MAC) | MIC (M. intracellulare; isolate 8, MAC) | MIC (M. intracellulare; isolate 9, MAC) | MIC (M. simiae; isolate 14, Other)
0.12 µg/mL: MIC (M. fortuitum group; isolate 27, M. fortuitum group, M. porcinum) | MIC (M. fortuitum group; isolate 29, M. fortuitum group, M. porcinum/M. boenickei) | MIC (M. fortuitum group; isolate 31, M. fortuitum group, M. senegalense) | MIC (M. fortuitum group; isolate 32, M. fortuitum group, M. senegalense) | MIC (M. fortuitum group; isolate 33, M. fortuitum group, M. senegalense) | MIC (M. fortuitum group; isolate 34, M. fortuitum group, M. senegalense) | MIC (M. mucogenium group; isolate 39, M. mucogenicum group, M. mucogenicum)
1 µg/mL: MIC (M. mucogenium group; isolate 45, M. mucogenicum group, M. phocaicum) | MIC (M. mucogenium group; isolate 46, M. mucogenicum group, M. phocaicum) | MIC (M. mucogenium group; isolate 48, M. mucogenicum group, M. phocaicum) | MIC (M. intracellulare; isolate 7, MAC)
4 µg/mL: MIC (M. abscessus complex; isolate 5, M. abscessus complex, erm gene type massiliense/subsp. abs hybrid) | MIC (M. abscessus complex; isolate 10, M. abscessus complex, erm gene type Type 1 abscessus) | MIC (M. abscessus complex; isolate 12, M. abscessus complex, erm gene type Type 6 abscessus) | MIC (M. abscessus complex; isolate 16, M. abscessus complex, erm gene type Type 7 abscessus) | MIC (M. abscessus complex; isolate 17, M. abscessus complex, erm gene type Type 8 abscessus) | MIC (M. chelonae; isolate 18, M. chelonae) | MIC (M. immunogenum group; isolate 36, M. immunogenum group) | MIC (M. avium; isolate 3, MAC) | MIC (M. chimaera; isolate 4, MAC) | MIC (M. simiae; isolate 13, Other)
≤ 0.06 µg/mL: MIC (M. fortuitum group; isolate 23, M. fortuitum group, M. fortuitum) | MIC (M. fortuitum group; isolate 24, M. fortuitum group, M. fortuitum) | MIC (M. fortuitum group; isolate 25, M. fortuitum group, M. fortuitum) | MIC (M. fortuitum group; isolate 26, M. fortuitum group, M. porcinum) | MIC (M. fortuitum group; isolate 30, M. fortuitum group, M. porcinum/M. boenickei) | MIC (M. smegmatis group; isolate 49, M. smegmatis group, M. goodii)
